Experimental data: patent US8937089B2, “Synergistic mixtures of anthranilamide invertebrate pest control agents” (priority 2004, dated 2015)

Legend:
Test in all cases: whole plant or invertebrate
Assay type in all cases: in vivo
[1] = tested on: corn planthopper (Peregrines maidis); details: Corn Plant Hopper
Method in brief: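 Compounds in 10% acetone/90% water with 300 ppm X-77 surfactant sprayed (3 replications) onto 3- to 4-day-old corn plants, dried 1 h, then infested with 10–20 corn planthopper nymphs aged 18–20 days. Held 6 days at 19-21° C. and 50-70% relative humidity; contact and/or systemic control assessed.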

[2] = tested on: western flower thrip (Frankliniella occidentalis Pergande); details: single compound, spray, 7 days; for mortality at 100 ppm: rate 100 ppm
Method in brief: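 Compounds in 10% acetone/90% water with 300 ppm non-ionic surfactant were sprayed onto 5- to 7-day-old bean plants, 3 replicates. After 1 h drying, 22–27 adult thrips were added per unit. Units were held 7 days at 25° C, 45–55% RH, assessing contact and/or systemic control.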

[3] = tested on: diamondback moth (Plutella xylostella)
Experimental: The test compounds were dissolved in water. […] Serial dilutions were made to obtain the appropriate concentrations. To obtain the desired mixture concentrations of each compound, twice the desired concentration of each of the two mixture partner compounds were mixed together in equal volumes.
The diluted solutions of the test compounds were sprayed to run-off on three-week-old tomato plants. The plants were placed on a rotating turntable sprayer (10 rpm). Test solutions were applied using a flat fan air-assisted nozzle (Spraying Systems 122440) at 10 psi (69 kPa). […] The leaves were cut into pieces, which were placed singly into 5.5 cm-by-3.5 cm cells of a sixteen-cell plastic tray. Each cell contained a 2.5-cm square of moistened chromatography paper to prevent desiccation. One insect was placed in each cell. There two trays per treatment. Trays were held in the growth chamber at 25° C., 16-hour light:8-hour dark, 60% relative humidity for 4 days.
For evaluating control of diamondback moth (Plutella xylostella), cabbage (var. Stonehead) plants were grown in Metromix potting soil in 10-cm pots in aluminum trays to test size (28 days, 3-4 full leaves) the plants were sprayed to the point of runoff using the turntable sprayer as described in Test I. Test compounds were formulated and sprayed on test plants as described for Test I. After drying for 2 hours, the treated leaves were excised and infested with one cabbage looper per cell and covered. The test units were placed on trays and put in a growth chamber at 25° C. and 60% relative humidity for 4 days.

[4] = tested on: cotton melon aphid (Aphis gossypii Glover); details: for mortality at 100 ppm: rate 100 ppm; for mortality at 1000 ppm: rate 1000 ppm
Method in brief: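 Cotton plants (6–7 days old) pre-infested with 30–40 aphids by cut-leaf method, sprayed with compound (ppm) in 10% acetone/90% water with 300 ppm X-77 surfactant, three replicates. Held 6 days at 19–21 °C, 50–70% RH; contact and/or systemic control assessed.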

[5] = tested on: potato leafhopper (Empoasca fabae Harris); details: alone; for mortality at 100 ppm: rate 100 ppm; for mortality at 1000 ppm: rate 1000 ppm
Method in brief: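 Bean plants (5–6 days old, one primary leaf excised) were sprayed with 1 mL of compound in 10% acetone/water with 300 ppm X-77 surfactant, 3 replicates. After drying for 1 h, each unit was infested with 5 adult leafhoppers. Units were held 6 days at 19–21 °C and 50–70% RH.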

[6] = tested on: silverleaf whitefly (Bemisia argentifolii Bellows and Perring); details: Table 2B; for mortality at 1000 ppm: rate 1000 ppm; for mortality at 2 ppm: rate 2 ppm
Method in brief: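 Whitefly-egg-infested 12–14-day-old cotton plants sprayed with compound in 10% acetone/90% water plus 300 ppm non-ionic surfactant, in triplicate. Plants then held 13 days at 28 °C and 50–70% relative humidity before mortality assessment.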

[7] = tested on: green peach aphid (Myzus persicae Sulzer); details: Green Peach Aphid; for mortality at 100 ppm: rate 100 ppm; for mortality at 1000 ppm: rate 1000 ppm
Method in brief: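 Compounds formulated in 10% acetone/water with 300 ppm X-77 surfactant were atomized onto aphid-infested radish seedlings, with three replicates per treatment. Infestation was 30–40 aphids transferred on excised leaf pieces, covering contact and systemic exposure. Test units stayed 6 days in a growth chamber at 19–21 °C and 50–70% relative humidity.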

[8] = rate 100 ppm, read-out: % mortality (obs)
[9] = rate 1000 ppm, read-out: % mortality (obs)
[10] = Frankliniella occidentalis, 168 h, read-out: % mortality (obs)
[11] = Frankliniella occidentalis, 168 h, rate 1000 ppm, read-out: % mortality (obs)
[12] = Bemisia argentifolii, in Gossypium hirsutum, read-out: % mortality (obs)
[13] = Myzus persicae, in Raphanus sativus, read-out: % mortality (obs)
[14] = rate 10 ppm, read-out: % mortality (obs)
[15] = Frankliniella occidentalis, 168 h, rate 10 ppm, read-out: % mortality (obs)
[16] = Aphis gossypii, rate 10 ppm, read-out: % mortality (obs)
[17] = Aphis gossypii, read-out: % mortality (obs)
[18] = Empoasca fabae, rate 10 ppm, read-out: % mortality (obs)
[19] = Empoasca fabae, read-out: % mortality (obs)
[20] = Bemisia argentifolii, in Gossypium hirsutum, rate 10 ppm, read-out: % mortality (obs)
[21] = Myzus persicae, in Raphanus sativus, rate 10 ppm, read-out: % mortality (obs)

Pyridaben
% mortality (obs) ([1]; rate 2 ppm): 10% | % mortality (obs) ([1]; rate 2.5 ppm): 2% | % mortality (obs) ([1]; rate 3 ppm): 2% | % mortality (obs) ([2]; rate 10 ppm): 30% | % mortality (obs) ([2]; rate 80 ppm): 50% | % mortality (obs) ([2]; rate 200 ppm): 60% | % mortality (obs) ([3]; rate 100 ppm): 100% | % mortality (obs) ([3]; rate 150 ppm): 80% | % mortality (obs) ([3]; rate 200 ppm): 100% | % mortality (obs) ([4]; rate 1 ppm): 11% | % mortality (obs) ([4]; rate 2 ppm): 15% | % mortality (obs) ([4]; rate 10 ppm): 71% | % mortality (obs) ([5]; rate 1 ppm): 0% | % mortality (obs) ([5]; rate 2.5 ppm): 13% | % mortality (obs) ([5]; rate 10 ppm): 100% | % mortality (obs) ([6]; rate 20 ppm): 21% | % mortality (obs) ([6]; rate 30 ppm): 55% | % mortality (obs) ([6]; rate 50 ppm): 73% | % mortality (obs) ([7]; rate 1 ppm): 100% | % mortality (obs) ([7]; rate 10 ppm): 14% | % mortality (obs) ([7]; rate 60 ppm): 60%

CCc1ccc(C(=O)NN(C(=O)c2cc(C)cc(C)c2)C(C)(C)C)cc1 [Tebufenozide]
mortality at 100 ppm [1, 8]: 12% | mortality at 1000 ppm [1, 9]: 16% | mortality at 3000 ppm ([1]; rate 3000 ppm, read-out: % mortality (obs)): 12% | mortality at 100 ppm [2, 10]: 70% | mortality at 1000 ppm [2, 11]: 60% | mortality at 3000 ppm ([2]; Frankliniella occidentalis, 168 h, rate 3000 ppm, read-out: % mortality (obs)): 60% | mortality at 0.5 ppm ([4]; Aphis gossypii, rate 0.5 ppm, read-out: % mortality (obs)): 21% | mortality at 1.5 ppm ([4]; Aphis gossypii, rate 1.5 ppm, read-out: % mortality (obs)): 37% | mortality at 3 ppm ([4]; Aphis gossypii, rate 3 ppm, read-out: % mortality (obs)): 22% | mortality at 3 ppm ([5]; Empoasca fabae, rate 3 ppm, read-out: % mortality (obs)): 40% | mortality at 4 ppm ([5]; Empoasca fabae, rate 4 ppm, read-out: % mortality (obs)): 27% | mortality at 5 ppm ([5]; Empoasca fabae, rate 5 ppm, read-out: % mortality (obs)): 20% | mortality at 100 ppm ([6]; Bemisia argentifolii, in Gossypium hirsutum, rate 100 ppm, read-out: % mortality (obs)): 2% | mortality at 1000 ppm [6, 12]: 6% | mortality at 3000 ppm ([6]; Bemisia argentifolii, in Gossypium hirsutum, rate 3000 ppm, read-out: % mortality (obs)): 7% | mortality at 100 ppm [7, 13]: 8% | mortality at 1000 ppm [7, 13]: 7% | mortality at 3000 ppm ([7]; Myzus persicae, in Raphanus sativus, rate 3000 ppm, read-out: % mortality (obs)): 9%

Pyridalyl
% mortality (obs) ([1]; rate 10 ppm): 2% | % mortality (obs) ([1]; rate 100 ppm): 6% | % mortality (obs) ([1]; rate 1000 ppm): 11% | % mortality (obs) ([2]; rate 5 ppm): 30% | % mortality (obs) ([2]; rate 50 ppm): 60% | % mortality (obs) ([2]; rate 500 ppm): 100% | % mortality (obs) ([4]; rate 1 ppm): 22% | % mortality (obs) ([4]; rate 1.5 ppm): 34% | % mortality (obs) ([4]; rate 2 ppm): 32% | % mortality (obs) ([5]; rate 0.5 ppm): 13% | % mortality (obs) ([5]; rate 5 ppm): 13% | % mortality (obs) ([5]; rate 50 ppm): 7% | % mortality (obs) ([6]; rate 10 ppm): 0% | % mortality (obs) ([6]; rate 25 ppm): 0% | % mortality (obs) ([6]; rate 100 ppm): 0% | % mortality (obs) ([7]; rate 1 ppm): 18% | % mortality (obs) ([7]; rate 10 ppm): 8% | % mortality (obs) ([7]; rate 20 ppm): 3%

CCOC(=O)NCCOc1ccc(Oc2ccccc2)cc1 [Fenoxycarb]
mortality at 10 ppm [1, 14]: 8% | mortality at 100 ppm [1, 8]: 2% | mortality at 1000 ppm [1, 9]: 5% | mortality at 10 ppm [2, 15]: 40% | mortality at 100 ppm [2, 10]: 70% | mortality at 1000 ppm [2, 11]: 60% | mortality at 10 ppm [4, 16]: 16% | mortality at 100 ppm [4, 17]: 23% | mortality at 1000 ppm [4, 17]: 34% | mortality at 10 ppm [5, 18]: 0% | mortality at 100 ppm [5, 19]: 20% | mortality at 1000 ppm [5, 19]: 0% | mortality at 2 ppm [6, 12]: 0% | mortality at 10 ppm [6, 20]: 0% | mortality at 20 ppm ([6]; Bemisia argentifolii, in Gossypium hirsutum, rate 20 ppm, read-out: % mortality (obs)): 21% | mortality at 10 ppm [7, 21]: 17% | mortality at 100 ppm [7, 13]: 16% | mortality at 1000 ppm [7, 13]: 18%

Cartap
% mortality (obs) ([1]; rate 0.3 ppm): 100% | % mortality (obs) ([1]; rate 3 ppm): 100% | % mortality (obs) ([1]; rate 30 ppm): 100% | % mortality (obs) ([2]; rate 1 ppm): 40% | % mortality (obs) ([2]; rate 1000 ppm): 100% | % mortality (obs) ([2]; rate 3000 ppm): 100% | % mortality (obs) ([4]; rate 0.2 ppm): 29% | % mortality (obs) ([4]; rate 2 ppm): 34% | % mortality (obs) ([4]; rate 200 ppm): 83% | % mortality (obs) ([5]; rate 0.1 ppm): 20% | % mortality (obs) ([5]; rate 1 ppm): 73% | % mortality (obs) ([5]; rate 10 ppm): 100% | % mortality (obs) ([6]; rate 0.1 ppm): 0% | % mortality (obs) ([6]; rate 0.2 ppm): 0% | % mortality (obs) ([6]; rate 0.5 ppm): 0% | % mortality (obs) ([7]; rate 0.2 ppm): 11% | % mortality (obs) ([7]; rate 0.4 ppm): 26% | % mortality (obs) ([7]; rate 0.6 ppm): 17%

CC(C)N1C(=O)N(c2ccccc2)CS/C1=N\C(C)(C)C [Buprofezin]
mortality at 10 ppm [1, 14]: 96% | mortality at 100 ppm [1, 8]: 97% | mortality at 1000 ppm [1, 9]: 98% | mortality at 10 ppm [2, 15]: 20% | mortality at 100 ppm [2, 10]: 20% | mortality at 1000 ppm [2, 11]: 30% | mortality at 10 ppm [4, 16]: 34% | mortality at 100 ppm [4, 17]: 30% | mortality at 1000 ppm [4, 17]: 36% | mortality at 10 ppm [5, 18]: 20% | mortality at 100 ppm [5, 19]: 20% | mortality at 1000 ppm [5, 19]: 0% | mortality at 300 ppm ([6]; Bemisia argentifolii, in Gossypium hirsutum, rate 300 ppm, read-out: % mortality (obs)): 75% | mortality at 500 ppm ([6]; Bemisia argentifolii, in Gossypium hirsutum, rate 500 ppm, read-out: % mortality (obs)): 65% | mortality at 1000 ppm [6, 12]: 96% | mortality at 10 ppm [7, 21]: 63% | mortality at 100 ppm [7, 13]: 63% | mortality at 1000 ppm [7, 13]: 54%

COc1cccc(C(=O)NN(C(=O)c2cc(C)cc(C)c2)C(C)(C)C)c1C [Methoxyfenozide]
mortality at 10 ppm [1, 14]: 7% | mortality at 100 ppm [1, 8]: 2% | mortality at 1000 ppm [1, 9]: 10% | mortality at 10 ppm [2, 15]: 60% | mortality at 100 ppm [2, 10]: 60% | mortality at 500 ppm ([2]; Frankliniella occidentalis, 168 h, rate 500 ppm, read-out: % mortality (obs)): 60% | mortality at 5 ppm ([4]; Aphis gossypii, rate 5 ppm, read-out: % mortality (obs)): 32% | mortality at 50 ppm ([4]; Aphis gossypii, rate 50 ppm, read-out: % mortality (obs)): 54% | mortality at 500 ppm ([4]; Aphis gossypii, rate 500 ppm, read-out: % mortality (obs)): 38% | mortality at 0.08 ppm ([5]; Empoasca fabae, rate 0.08 ppm, read-out: % mortality (obs)): 13% | mortality at 0.4 ppm ([5]; Empoasca fabae, rate 0.4 ppm, read-out: % mortality (obs)): 13% | mortality at 2 ppm ([5]; Empoasca fabae, rate 2 ppm, read-out: % mortality (obs)): 20% | mortality at 2 ppm [6, 12]: 1% | mortality at 10 ppm [6, 20]: 2% | mortality at 50 ppm ([6]; Bemisia argentifolii, in Gossypium hirsutum, rate 50 ppm, read-out: % mortality (obs)): 1% | mortality at 10 ppm [7, 21]: 7% | mortality at 100 ppm [7, 13]: 17% | mortality at 1000 ppm [7, 13]: 6%
